Biological target: T1, IGF2BP3 (Homo sapiens, UniProt O00425)
T1 construct: immobilised by amine coupling on CM5 chip (PDB 6GQE used only for docking)
Experiment: SPR (BIAcore T200, CM5 chip, immobilised IGF2BP3, […] Langmuir global fit)
Format: binding

T1 sequence (O00425 whole entry): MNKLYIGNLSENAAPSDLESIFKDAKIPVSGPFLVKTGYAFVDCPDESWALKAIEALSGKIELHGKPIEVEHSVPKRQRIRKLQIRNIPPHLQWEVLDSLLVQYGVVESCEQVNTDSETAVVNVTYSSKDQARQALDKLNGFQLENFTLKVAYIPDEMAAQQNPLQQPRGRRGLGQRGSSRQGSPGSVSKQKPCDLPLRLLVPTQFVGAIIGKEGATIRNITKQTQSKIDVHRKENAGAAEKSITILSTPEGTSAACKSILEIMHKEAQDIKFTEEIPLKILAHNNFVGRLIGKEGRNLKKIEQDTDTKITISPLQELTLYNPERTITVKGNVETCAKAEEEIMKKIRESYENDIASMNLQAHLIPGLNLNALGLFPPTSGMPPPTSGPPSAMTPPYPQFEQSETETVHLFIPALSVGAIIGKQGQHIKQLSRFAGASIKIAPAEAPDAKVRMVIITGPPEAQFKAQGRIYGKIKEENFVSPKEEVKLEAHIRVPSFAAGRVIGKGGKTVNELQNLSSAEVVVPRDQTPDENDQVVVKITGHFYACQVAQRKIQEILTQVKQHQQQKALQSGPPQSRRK

- Kd: 6.37 µM
Compound: COc1cc2c[n+](C)c3c4cc5c(cc4ccc3c2cc1OC)OCO5 [nitidine chloride]

From paper PMC11796242, “Nitidine chloride inhibits the progression of hepatocellular carcinoma by suppressing IGF2BP3 and modulates metabolic pathways in an m^6A-dependent manner” (Molecular Medicine, 2025)
